Assay results as given in the supplement of paper PMC4862054.
“And” between values parts separate entries of the source, which are not always exact repeats. Identical values can stand only once.

Columns and labels:
Experiment in all cases: normalised viability (% of control), CellTiter-Blue; higher = more viable cells (about 100 = DMSO control)
Settings in all cases: incubation time: 72 h
[1] = test system: CAL-148
Experimental: (§1)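 DSRT, CellTiter-Blue viability, 72 h incubation. Signal is normalised to DMSO and benzethonium chloride controls. Value is the normalised response at dose 8.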

[2] = test system: MDA-MB-453
Experimental: as §1

[3] = test system: CAL-85-1
Experimental: as §1

[4] = test system: DU-4475
Experimental: as §1

[5] = test system: HDQ-P1
Experimental: as §1

[6] = test system: CAL-51
Experimental: as §1

[7] = test system: CAL-148; remark: listed apart in the source
Experimental: (§2)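 DSRT, CellTiter-Blue viability, 72 h incubation. Signal is normalised to DMSO and benzethonium chloride controls. Value is the normalised response at dose 6.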

[8] = test system: MDA-MB-453; remark: listed apart in the source
Experimental: as §2

[9] = test system: CAL-85-1; remark: listed apart in the source
Experimental: as §2

[10] = test system: DU-4475; remark: listed apart in the source
Experimental: as §2

[11] = test system: HDQ-P1; remark: listed apart in the source
Experimental: as §2

[12] = test system: CAL-51; remark: listed apart in the source
Experimental: as §2

## Cc1cccc(-c2nn3c(c2-c2ccnc4ccc(C(N)=O)cc24)CCC3)n1 (300 nM)
[1]
  normalised viability: 110%
[2]
  normalised viability: 115%
[3]
  normalised viability: 108%
[4]
  normalised viability: 102%
[5]
  normalised viability: 125%
[6]
  normalised viability: 103%

## Cn1cc(CNCC2CCN(c3ncc(C(=O)NO)cn3)CC2)c2ccccc21 (300 nM)
[1]
  normalised viability: 1.57%
[2]
  normalised viability: 2.81%
[3]
  normalised viability: 8.58%
[4]
  normalised viability: 2.97%
[5]
  normalised viability: 18.8%
[6]
  normalised viability: 7.57%

## COc1ccc(-c2cc3c(C)nc(N)nc3n([C@H]3CC[C@H](OCCO)CC3)c2=O)cn1 (3000 nM)
[1]
  normalised viability: 6.69%
[2]
  normalised viability: 3.88%
[3]
  normalised viability: 10.4%
[4]
  normalised viability: 6.45%
[5]
  normalised viability: 10.7%
[6]
  normalised viability: 2.65%

## O=C(NC[C@H](O)CO)c1ccncc1Nc1ccc(I)cc1F (3000 nM)
[1]
  normalised viability: 66.8%
[2]
  normalised viability: 57.3%
[3]
  normalised viability: 48%
[4]
  normalised viability: 0.63%
[5]
  normalised viability: 57.4%
[6]
  normalised viability: 78.9%

## Nc1nc(=O)c2c([nH]1)NCC(CNc1ccc(C(=O)N[C@@H](CCC(=O)O)C(=O)O)cc1)N2C=O (mixture of isomers) [Folinic acid] (29.7 nM)
[7]
  normalised viability: 86.6%
[8]
  normalised viability: 99.8%
[9]
  normalised viability: 100%
[10]
  normalised viability: 115%
[11]
  normalised viability: 140%
[12]
  normalised viability: 97.8%

## Nc1nc(=O)c2c([nH]1)NCC(CNc1ccc(C(=O)N[C@@H](CCC(=O)O)C(=O)O)cc1)N2C=O (mixture of isomers) [Folinic acid] (297 nM)
[1]
  normalised viability: 95.2%
[2]
  normalised viability: 106%
[3]
  normalised viability: 100%
[4]
  normalised viability: 98.8%
[5]
  normalised viability: 122%
[6]
  normalised viability: 92.8%

## O=C(Nc1c[nH]nc1-c1nc2ccc(CN3CCOCC3)cc2[nH]1)NC1CC1 [AT9283] (300 nM)
[7]
  normalised viability: 61.9%
[8]
  normalised viability: 58.1%
[9]
  normalised viability: 87.7%
[10]
  normalised viability: 28.4%
[11]
  normalised viability: 61.1%
[12]
  normalised viability: 59.1%

## O=C(Nc1c[nH]nc1-c1nc2ccc(CN3CCOCC3)cc2[nH]1)NC1CC1 [AT9283] (3000 nM)
[1]
  normalised viability: 67.2%
[2]
  normalised viability: 26.9%
[3]
  normalised viability: 16.8%
[4]
  normalised viability: 0.96%
[5]
  normalised viability: 25.9%
[6]
  normalised viability: 25.5%

## COc1cc(CCc2cc(NC(=O)c3ccc(N4CC(C)NC(C)C4)cc3)n[nH]2)cc(OC)c1 (stereo unspecified) [AZD4547] (30 nM)
[7]
  normalised viability: 105%
[8]
  normalised viability: 109%
[9]
  normalised viability: 89.7%
[10]
  normalised viability: 92.7%
[11]
  normalised viability: 103%
[12]
  normalised viability: 107%

## COc1cc(CCc2cc(NC(=O)c3ccc(N4CC(C)NC(C)C4)cc3)n[nH]2)cc(OC)c1 (stereo unspecified) [AZD4547] (300 nM)
[1]
  normalised viability: 105%
[2]
  normalised viability: 56.1%
[3]
  normalised viability: 95.5%
[4]
  normalised viability: 97.8%
[5]
  normalised viability: 117%
[6]
  normalised viability: 96.4%

## CCC/C=C/C=C/C(=O)O[C@H]1/C(=C/C(=O)OC)C[C@H]2C[C@H]([C@@H](C)O)OC(=O)C[C@H](O)C[C@@H]3C[C@H](OC(C)=O)C(C)(C)[C@](O)(C[C@@H]4C/C(=C/C(=O)OC)C[C@H](/C=C/C(C)(C)[C@]1(O)O2)O4)O3 [Bryostatin 1] (3 nM)
[7]
  normalised viability: 85.5%
[8]
  normalised viability: 85.9%
[9]
  normalised viability: 110%
[10]
  normalised viability: 88.7%
[11]
  normalised viability: 78.6%
[12]
  normalised viability: 98.7%

## CCC/C=C/C=C/C(=O)O[C@H]1/C(=C/C(=O)OC)C[C@H]2C[C@H]([C@@H](C)O)OC(=O)C[C@H](O)C[C@@H]3C[C@H](OC(C)=O)C(C)(C)[C@](O)(C[C@@H]4C/C(=C/C(=O)OC)C[C@H](/C=C/C(C)(C)[C@]1(O)O2)O4)O3 [Bryostatin 1] (30 nM)
[1]
  normalised viability: 110%
[2]
  normalised viability: 96.6%
[3]
  normalised viability: 111%
[4]
  normalised viability: 65%
[5]
  normalised viability: 100%
[6]
  normalised viability: 95.3%

## CO[C@@H](C(=O)N1Cc2[nH]nc(NC(=O)c3ccc(N4CCN(C)CC4)cc3)c2C1)c1ccccc1 [Danusertib] (300 nM)
[7]
  normalised viability: 54.6%
[8]
  normalised viability: 60.2%
[9]
  normalised viability: 61.9%
[10]
  normalised viability: 57%
[11]
  normalised viability: 50.8%
[12]
  normalised viability: 60.3%

## CO[C@@H](C(=O)N1Cc2[nH]nc(NC(=O)c3ccc(N4CCN(C)CC4)cc3)c2C1)c1ccccc1 [Danusertib] (3000 nM)
[1]
  normalised viability: 53.5%
[2]
  normalised viability: 34.2%
[3]
  normalised viability: 40.5%
[4]
  normalised viability: 23.1%
[5]
  normalised viability: 27.8%
[6]
  normalised viability: 25.9%

## Cc1nc(Nc2ncc(C(=O)Nc3c(C)cccc3Cl)s2)cc(N2CCN(CCO)CC2)n1 [Dasatinib] (30 nM)
[7]
  normalised viability: 110% and 90.6%
[8]
  normalised viability: 102% and 101%
[9]
  normalised viability: 83.9% and 86%
[10]
  normalised viability: 105% and 87.6%
[11]
  normalised viability: 24.4% and 18.2%
[12]
  normalised viability: 59.8% and 68.3%

## Cc1nc(Nc2ncc(C(=O)Nc3c(C)cccc3Cl)s2)cc(N2CCN(CCO)CC2)n1 [Dasatinib] (300 nM)
[1]
  normalised viability: 90% and 89.1%
[2]
  normalised viability: 99.2% and 103%
[3]
  normalised viability: 51.2% and 43.6%
[4]
  normalised viability: 102% and 104%
[5]
  normalised viability: 9.87% and 10.7%
[6]
  normalised viability: 41.5% and 39.9%

## O=S(=O)(c1cccc2cnccc12)N1CCCNCC1 [Fasudil] (300 nM)
[7]
  normalised viability: 83.7%
[8]
  normalised viability: 106%
[9]
  normalised viability: 97.2%
[10]
  normalised viability: 117%
[11]
  normalised viability: 90.9%
[12]
  normalised viability: 107%

## O=S(=O)(c1cccc2cnccc12)N1CCCNCC1 [Fasudil] (3000 nM)
[1]
  normalised viability: 81.2%
[2]
  normalised viability: 99.4%
[3]
  normalised viability: 101%
[4]
  normalised viability: 113%
[5]
  normalised viability: 121%
[6]
  normalised viability: 118%

## CS(=O)(=O)N1CCN(Cc2cc3nc(-c4cccc5[nH]ncc45)nc(N4CCOCC4)c3s2)CC1 [GDC-0941] (300 nM)
[7]
  normalised viability: 83.5%
[8]
  normalised viability: 43.4%
[9]
  normalised viability: 73.2%
[10]
  normalised viability: 83.2%
[11]
  normalised viability: 37.6%
[12]
  normalised viability: 61%

## CS(=O)(=O)N1CCN(Cc2cc3nc(-c4cccc5[nH]ncc45)nc(N4CCOCC4)c3s2)CC1 [GDC-0941] (3000 nM)
[1]
  normalised viability: 18.6%
[2]
  normalised viability: 10.6%
[3]
  normalised viability: 31.9%
[4]
  normalised viability: 104%
[5]
  normalised viability: 14.5%
[6]
  normalised viability: 14.3%

## Cc1c(CN2CCN(C(=O)[C@H](C)O)CC2)sc2c(N3CCOCC3)nc(-c3cnc(N)nc3)nc12 [GDC-0980] (300 nM)
[7]
  normalised viability: 52.1%
[8]
  normalised viability: 18.3%
[9]
  normalised viability: 62%
[10]
  normalised viability: 68.3%
[11]
  normalised viability: 29.7%
[12]
  normalised viability: 38.7%
